Data published in patent US10323036B2 (Nimbus Lakshmi, Inc., priority 2016, dated 2019).
Read-outs that look alike come from different tables or passages of the source.

Target: human TYK2 (JH2domain-pseudokinase) (Homo sapiens (Human), UniProt P29597)
Assay: TYK2 JH2 Domain Binding Assay (KINOMEscan)
Conditions: read-out: JH2 Kd
[1] = Table 5, Tyk2 JH2 Domain Binding Assay

Chain of human TYK2 (JH2domain-pseudokinase) (P29597 556-888): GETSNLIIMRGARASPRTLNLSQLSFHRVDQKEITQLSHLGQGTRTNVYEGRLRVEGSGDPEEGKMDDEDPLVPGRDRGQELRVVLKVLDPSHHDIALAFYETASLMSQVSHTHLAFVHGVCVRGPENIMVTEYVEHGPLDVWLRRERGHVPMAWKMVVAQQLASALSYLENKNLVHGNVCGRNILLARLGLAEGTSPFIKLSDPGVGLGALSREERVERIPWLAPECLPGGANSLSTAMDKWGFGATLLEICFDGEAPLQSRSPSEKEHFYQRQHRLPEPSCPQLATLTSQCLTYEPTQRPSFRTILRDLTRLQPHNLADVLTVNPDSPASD

Compound	Kd (Table 4, JH2 binding assay) [nM]	Kd [1] [nM]
COc1c(Nc2cc(NC(=O)C3CC3)nc3[nH]n(C)c(=O)c23)cccc1-c1n[nH]c(C)n1 [Compound I-62]	< 0.1	
Cn1[nH]c2nc(Nc3cncc(C#N)n3)cc(Nc3ccc(C4CC4)cc3S(C)(=O)=O)c2c1=O [Compound I-212, 6-((4-((4-cyclopropyl-2-(methylsulfonyl)phenyl)amino)-2-methyl-3-oxo-2,3-dihydro-1H-pyrazolo[3,4-b]pyridin-6-yl)amino)pyrazine-2-carbonitrile]	> 10	
COc1c(Cl)cccc1Nc1cc(Nc2cc3n(n2)CCOC3)nc2[nH]n(C)c(=O)c12 [Compound I-221, 4-((3-chloro-2-methoxyphenyl)amino)-6-((6,7-dihydro-4H-pyrazolo[5,1-c][1,4]oxazin-2-yl)amino)-2-methyl-1,2-dihydro-3H-pyrazolo[3,4-b]pyridin-3-one]	0.1 to 0.5	
COc1c(Nc2cc(NC(=O)C3CC3)nc3[nH]n(C)c(=O)c23)cccc1-c1noc(C)n1 [Compound I-131]	0.1 to 0.5	
COc1c(Nc2cc(Nc3ccc(N4CCOCC4)cn3)nc3[nH]n(C)c(=O)c23)cccc1-c1ncn(C)n1 [Compound I-20, 4-((2-methoxy-3-(1-methyl-1H-1,2,4-triazol-3-yl)phenyl)amino)-2-methyl-6-((5-morpholinopyridin-2-yl)amino)-1,2-dihydro-3H-pyrazolo[3,4-b]pyridin-3-one]	0.1 to 0.5	
COc1c(C#N)cccc1Nc1cc(NC(=O)C2CC2)nc2[nH]n(C)c(=O)c12 [Compound I-33]	> 10	
COc1c(Nc2cc(NC(=O)C3CC3)ncc2-c2nnc(C)s2)cccc1-c1ncn(C)n1 [VIII-7, N-(4-((2-methoxy-3-(1-methyl-1H-1,2,4-triazol-3-yl)phenyl)amino)-5-(5-methyl-1,3,4-thiadiazol-2-yl)pyridin-2-yl)cyclopropanecarboxamide]		1 to 10
COc1c(Cl)cccc1Nc1cc(Nc2ccc(C(=O)N3CCCC3)c(C(F)(F)F)n2)nc2[nH]n(C)c(=O)c12 [Compound I-128, 4-((3-chloro-2-methoxyphenyl)amino)-2-methyl-6-((5-(pyrrolidine-1-carbonyl)-6-(trifluoromethyl)pyridin-2-yl)amino)-1,2-dihydro-3H-pyrazolo[3,4-b]pyridin-3-one]	0.1 to 0.5	
COc1c(Nc2cc(NC(=O)C3CC3)nc3[nH]n(C)c(=O)c23)cccc1-c1nnnn1C [Compound I-52]	1 to 10	
Cn1[nH]c2nc(NC(=O)[C@@H]3C[C@@H]3F)cc(Nc3ccc(C4CC4)cc3S(C)(=O)=O)c2c1=O [Compound I-210]	0.1 to 0.5	
COc1c(Cl)cccc1Nc1cc(Nc2cc3n(n2)CCCC3)nc2[nH]n(C)c(=O)c12 [Compound I-222, 4-((3-chloro-2-methoxyphenyl)amino)-2-methyl-6-((4,5,6,7-tetrahydropyrazolo[1,5-a]pyridin-2-yl)amino)-1,2-dihydro-3H-pyrazolo[3,4-b]pyridin-3-one]	1 to 10	
COCc1ccnc(Nc2cc(Nc3cccc(C(N)=O)c3OC)c3c(=O)n(C)[nH]c3n2)c1 [Compound I-126, 2-methoxy-3-((6-((4-(methoxymethyl)pyridin-2-yl)amino)-2-methyl-3-oxo-2,3-dihydro-1H-pyrazolo[3,4-b]pyridin-4-yl)amino)benzamide]	> 10	
CCNC(=O)c1cccc(Nc2cc(Nc3cccc(-c4nnn(C)n4)c3OC)c3c(=O)n(C)[nH]c3n2)n1 [Compound I-66, N-ethyl-6-((4-((2-methoxy-3-(2-methyl-2H-tetrazol-5-yl)phenyl)amino)-2-methyl-3-oxo-2,3-dihydro-1H-pyrazolo[3,4-b]pyridin-6-yl)amino)picolinamide]	0.5 to 1	
CCn1nc(-c2cccc(-c3nnn(C)n3)c2OC)c2cc(NC(=O)C3CC3)ncc21 [XVI-5, N-(1-ethyl-3-(2-methoxy-3-(2-methyl-2H-tetrazol-5-yl)phenyl)-1H-pyrazolo[3,4-c]pyridin-5-yl)cyclopropanecarboxamide]		10 to 100
COc1c(Nc2cc(NC(=O)C3CC3)ncc2-n2cc(CO)cn2)cccc1-c1ncn(C)n1 [VIII-10, N-(5-(4-(hydroxymethyl)-1H-pyrazol-1-yl)-4-((2-methoxy-3-(1-methyl-1H-1,2,4-triazol-3-yl)phenyl)amino)pyridin-2-yl)cyclopropanecarboxamide]		> 100
COc1c(F)cccc1Nc1cc(Nc2ccc(N3CCOCC3)cn2)nc2[nH]n(C)c(=O)c12 [Compound I-89, 4-((3-fluoro-2-methoxyphenyl)amino)-2-methyl-6-((5-morpholinopyridin-2-yl)amino)-1,2-dihydro-3H-pyrazolo[3,4-b]pyridin-3-one]	1 to 10	
COCc1ccc(Nc2cc(Nc3cccc(C#N)n3)nc3[nH]n(C)c(=O)c23)c(OC)c1 [Compound I-68, 6-((4-((2-methoxy-4-(methoxymethyl)phenyl)amino)-2-methyl-3-oxo-2,3-dihydro-1H-pyrazolo[3,4-b]pyridin-6-yl)amino)picolinonitrile]	0.1 to 0.5	
COc1c(Nc2cc(NC(=O)C3CC3)nc3[nH]n(C)c(=O)c23)cccc1-c1cnn(C)c1 [Compound I-55, N-(4-((2-methoxy-3-(1-methyl-1H-pyrazol-4-yl)phenyl)amino)-2-methyl-3-oxo-2,3-dihydro-1H-pyrazolo[3,4-b]pyridin-6-yl)cyclopropanecarboxamide]	0.5 to 1	
COc1c(Nc2cc(NC(=O)C3CC3)ncc2-c2ccon2)cccc1-c1nnn(C)n1 [VIII-8, N-(5-(isoxazol-3-yl)-4-((2-methoxy-3-(2-methyl-2H-tetrazol-5-yl)phenyl)amino)pyridin-2-yl)cyclopropanecarboxamide]		> 100
COc1c(Nc2cc(NC(=O)C3CC3)nc3[nH]n(C)c(=O)c23)cccc1-c1ncnn1C [Compound I-54, N-(4-((2-methoxy-3-(1-methyl-1H-1,2,4-triazol-5-yl)phenyl)amino)-2-methyl-3-oxo-2,3-dihydro-1H-pyrazolo[3,4-b]pyridin-6-yl)cyclopropanecarboxamide]	0.5 to 1	
COc1c(Nc2cc(NC(=O)C3CC3)ncc2-c2ncc(CO)s2)cccc1-c1ncn(C)n1 [VIII-6, N-(5-(5-(hydroxymethyl)thiazol-2-yl)-4-((2-methoxy-3-(1-methyl-1H-1,2,4-triazol-3-yl)phenyl)amino)pyridin-2-yl)cyclopropanecarboxamide]		10 to 100

Continued, values first:

Kd (Table 4, JH2 binding assay) [nM]	Kd [1] [nM]	Compound
0.1 to 0.5		CN(c1ccccc1Nc1cc(Nc2cc3c(cn2)OCC3)nc2[nH]n(C)c(=O)c12)S(C)(=O)=O [Compound I-226, N-(2-((6-((2,3-dihydrofuro[2,3-c]pyridin-5-yl)amino)-2-methyl-3-oxo-2,3-dihydro-1H-pyrazolo[3,4-b]pyridin-4-yl)amino)phenyl)-N-methylmethanesulfonamide]
> 10		COc1c(Nc2cc(Nc3cc(C)ccn3)nc3[nH]n(C)c(=O)c23)cccc1-c1nnn(C)n1 [Compound I-5, 4-((2-methoxy-3-(2-methyl-2H-tetrazol-5-yl)phenyl)amino)-2-methyl-6-((4-methylpyridin-2-yl)amino)-1,2-dihydro-3H-pyrazolo[3,4-b]pyridin-3-one]
0.1 to 0.5		Cc1ccc(Nc2cc(Nc3ccccc3S(C)(=O)=O)c3c(=O)n(C)[nH]c3n2)nn1 [Compound I-109, 2-methyl-6-((6-methylpyridazin-3-yl)amino)-4-((2-(methylsulfonyl)phenyl)amino)-1,2-dihydro-3H-pyrazolo[3,4-b]pyridin-3-one]
0.5 to 1		Cc1ccnc(Nc2cc(Nc3ccccc3S(C)(=O)=O)c3c(=O)n(C)[nH]c3n2)c1 [Compound I-138, 2-methyl-6-((4-methylpyridin-2-yl)amino)-4-((2-(methylsulfonyl)phenyl)amino)-1,2-dihydro-3H-pyrazolo[3,4-b]pyridin-3-one]
1 to 10		COc1c(F)cccc1Nc1cc(Nc2ccn(C)n2)nc2[nH]n(C)c(=O)c12 [Compound I-78, 4-((3-fluoro-2-methoxyphenyl)amino)-2-methyl-6-((1-methyl-1H-pyrazol-3-yl)amino)-1,2-dihydro-3H-pyrazolo[3,4-b]pyridin-3-one]
> 10		COc1c(Nc2cc(Nc3cc(C)ccn3)nc3[nH]n(C)c(=O)c23)cccc1-c1ncc(C)s1 [Compound I-47, 4-((2-methoxy-3-(5-methylthiazol-2-yl)phenyl)amino)-2-methyl-6-((4-methylpyridin-2-yl)amino)-1,2-dihydro-3H-pyrazolo[3,4-b]pyridin-3-one]
> 10		COc1c(Nc2cc(Nc3cc(C)ccn3)nc3[nH]n(C)c(=O)c23)cccc1-c1nccs1 [Compound I-43]
0.1 to 0.5		Cc1cc(Nc2cc(Nc3ccccc3S(C)(=O)=O)c3c(=O)n(C)[nH]c3n2)ncc1F [Compound I-107, 6-((5-fluoro-4-methylpyridin-2-yl)amino)-2-methyl-4-((2-(methylsulfonyl)phenyl)amino)-1,2-dihydro-3H-pyrazolo[3,4-b]pyridin-3-one]
0.1 to 0.5		Cc1cc(Nc2cc(Nc3ccc(Cl)cc3S(C)(=O)=O)c3c(=O)n(C)[nH]c3n2)nc(C)n1 [Compound I-199, 4-((4-chloro-2-(methylsulfonyl)phenyl)amino)-6-((2,6-dimethylpyrimidin-4-yl)amino)-2-methyl-1,2-dihydro-3H-pyrazolo[3,4-b]pyridin-3-one]
0.1 to 0.5		COc1c(Nc2cc(Nc3cccc(C(F)(F)F)n3)nc3[nH]n(C)c(=O)c23)cccc1-c1nnn(C)n1 [Compound I-60, 4-((2-methoxy-3-(2-methyl-2H-tetrazol-5-yl)phenyl)amino)-2-methyl-6-((6-(trifluoromethyl)pyridin-2-yl)amino)-1,2-dihydro-3H-pyrazolo[3,4-b]pyridin-3-one]
> 10		COc1c(Nc2cc(Nc3cccc(C#N)n3)nc3[nH]n(C)c(=O)c23)cccc1-c1ncn(C)n1 [Compound I-30, 6-((4-((2-methoxy-3-(1-methyl-1H-1,2,4-triazol-3-yl)phenyl)amino)-2-methyl-3-oxo-2,3-dihydro-1H-pyrazolo[3,4-b]pyridin-6-yl)amino)picolinonitrile]
1 to 10		Cc1ncc(Nc2cc(Nc3ccc(Cl)cc3S(C)(=O)=O)c3c(=O)n(C)[nH]c3n2)nc1C [Compound I-207, 4-((4-chloro-2-(methylsulfonyl)phenyl)amino)-6-((5,6-dimethylpyrazin-2-yl)amino)-2-methyl-1,2-dihydro-3H-pyrazolo[3,4-b]pyridin-3-one]
